# From US10251867B2, “Dosing regimen for a selective S1P1 receptor agonist” (ACTELION PHARMACEUTICALS LTD, priority 2008, dated 2019)
# Like-named read-outs stand apart in the source and are kept apart here.
# Columns and labels:
# healthy male subjects = experiment: Single-ascending dose (SAD) study AC-058-101, heart rate; assay type: in vivo, human; settings: without up-titration; 50 mg SAD, Day 1
# Description: In the single-ascending dose (SAD) study (AC-058-101), Compound 1 was administered orally to 6 groups of […] (aged 21-47 years). Doses of 1, 3, 8, 20, 50 and 75 mg were given to sequential groups of 8 subjects (6 on active drug and 2 on placebo) in a randomized, double-blind, placebo-controlled design. The dose of 20 mg was given once in the fasted and once in the fed condition, to assess any food effects on the pharmacokinetics of Compound 1. ECGs were recorded, clinical laboratory parameters, vital signs, pulmonary function, neurological assessments (in the 75-mg dose group), plasma levels of Compound 1, and peripheral lymphocyte counts (total and subsets) were determined. All 48 randomized subjects were evaluable and no subjects withdrew or discontinued from the study. All subjects treated with Compound 1 (n=36) were included in the pharmacokinetic (PK) and pharmacodynamic (PD) analysis.
# [1] = tested on: healthy male and female subjects; experiment: Multiple-ascending dose (MAD) study AC-058-102 Part A, heart rate without up-titration; assay type: in vivo, human; settings: Day 1, Part A
# Description: In Part A of the multiple-ascending dose (MAD) study (AC-058-102), Compound 1 was administered orally with doses of 5, 10, and 20 mg once-daily for 7 days to healthy male and female subjects (aged 22-58 years, 1:1 sex ratio) in a randomized, double-blind, placebo-controlled design. At each dose level, a group of 10 subjects were randomized to Compound 1 (8), or placebo (2). In Part A, all 30 randomized subjects completed the study and the 24 subjects who were treated with Compound 1 were included in the PK analysis.
# subjects = experiment: MAD study AC-058-102 Part B, up-titration scheme (10/20/40 mg), heart rate and ECG; assay type: in vivo, human; settings: for Mean HR reduction (2.5 h post-dose vs pre-dose): with up-titration, Part B 40-mg dose group
# Description: In Part B of the MAD study, an up-titration scheme was implemented in order to reduce first-dose effects of Compound 1 on sinus node automaticity and atrioventricular- (AV-) conduction. Treatment with Compound 1 started for 4 days with 10 mg once daily, followed by 4 days with 20 mg once daily, and 7 days with 40 mg once daily. Seventeen subjects (nine females and eight males, aged 18-43 years) were randomized. Thirteen subjects received active treatment and four subjects received matching placebo. A total of 15 out of the 17 subjects completed the study as scheduled. […] The 11 subjects treated with 40-mg Compound 1 who completed the study were included in the PK analysis of Compound 1.
# humans [2] = assay type: in vivo, human
# Description: All of these effects wane with repeated dosing. […] The acute effects on heart rate, atrioventricular conduction, or fatigue and dizziness, although not seriously adverse, are undesirable, and methods to minimize these effects would be valuable for maximizing the tolerability and safety of Compound 1, and other selective S1P1 receptor agonists, and minimizing associated monitoring requirements, in the early phase of dosing initiation, or, after a drug interruption, at re-initiation of drug therapy.
# Desensitization has been sustained over this 24-hour dosing interval. […] Desensitization has not been sustained over this 7-day dosing interval of the 20-mg dose. […]
# [3] = tested on: multiple sclerosis patients; settings: cited from earlier work
# humans [4] = settings: cited from earlier work
smiles,measurement,setting,value
"CCC/N=C1\S/C(=C\c2ccc(OC[C@H](O)CO)c(Cl)c2)C(=O)N1c1ccccc1C [Compound 1, (R)-5-[3-chloro-4-(2,3-dihydroxy-propoxy)-benz[Z]ylidene]-2-([Z]-propylimino)-3-o-tolyl-thiazolidin-4-one]",Mean HR reduction (2.5 h post-dose vs baseline),healthy male subjects,18 bpm
same,Mean HR reduction (2.5 h post-dose vs baseline),[1]; 10 mg,14 bpm
same,Mean HR reduction (2.5 h post-dose vs baseline),[1]; 20 mg,22 bpm
same,Second or third degree AV-blocks,subjects; Part B,No second or third degree AV-blocks were observed
same,Effects on other ECG variables,"subjects; Part B, multiple dosing",No relevant effects on other ECG variables were recorded
same,Discontinuation of dosing due to adverse events,"subjects; Part B, 13 subjects on active treatment",Dosing was discontinued in two subjects on active treatment due to adverse events
same,AV-block first degree,"subjects; Part B, after first 10 mg dose on Day 1",only one subject reported a transient AV-block first degree
same,Mean HR reduction at 2.5 h post-dose vs pre-dose,"subjects; Part B, day 2 (10 mg)",2 bpm
same,Mean HR reduction at 2.5 h post-dose vs pre-dose,"subjects; Part B, day 3 (10 mg)",1 bpm
same,Mean HR reduction at 2.5 h post-dose vs pre-dose,"subjects; Part B, day 4 (10 mg)",1 bpm
same,Mean HR reduction at 2.5 h post-dose vs pre-dose,"subjects; Part B, day 6 (20 mg)",4 bpm
same,Mean HR reduction at 2.5 h post-dose vs pre-dose,"subjects; Part B, day 7 (20 mg)",3 bpm
same,Mean HR reduction at 2.5 h post-dose vs pre-dose,"subjects; Part B, day 8 (20 mg)",3 bpm
same,Mean HR reduction (2.5 h post-dose vs pre-dose),"subjects; 10 mg, Day 1",14 bpm
same,Mean HR reduction (2.5 h post-dose vs pre-dose),"subjects; 20 mg, Day 5",9 bpm
same,Mean HR reduction (2.5 h post-dose vs pre-dose),"subjects; 40 mg, Day 9",4 bpm
same,"Acute effects on heart rate and rhythm and fatigue/dizziness, dose comparison",humans [2]; in vivo,milder at 10 mg than at 20 mg
same,Effect on heart rate,humans [2]; in vivo,transiently reduces heart rate
same,Fatigue or dizziness,humans [2]; in vivo,Occasional fatigue or dizziness
same,Heart rhythm,humans [2]; in vivo,irregular heart rhythm (so-called Wenckebach rhythm)
same,PR interval in the electrocardiogram (ECG),humans [2]; in vivo,transient increases in the PR interval
same,Time of maximal heart rate effect after administration,humans [2]; in vivo,1 to 3 h
same,Acute heart rate reduction,"humans [2]; in vivo, po",results in an acute heart rate reduction on Day 1
same,Acute heart rate reduction compared to the pre-dose value,"humans [2]; in vivo, po",no longer observed
same,Number of peripheral blood lymphocytes,humans [2]; repeated daily oral dosing of 5 mg or more,"consistent, sustained, and dose-dependent reduction in the number of peripheral blood lymphocytes"
CCCCCCCCc1ccc(CCC(N)(CO)CO)cc1 [FTY720],Rate of clinical relapses,[3],reduce the rate of clinical relapses
same,Effect on heart rate,humans [4],reduces heart rate in humans
